In data set [1] the test system is Lewis Lung Carcinoma (LLC) tumor. The experiment in a line: Mouse Lewis lung carcinoma (LLC) model. It counts as in vivo, C57BL/6 mice. As to conditions: single intravenous dose; cisplatin 5 mg/kg, LiPyDau 1 mg/kg. How it is done:
FIG. 6. Anti-tumor effect of LiPyDau and cisplatin in the mouse Lewis lung cancer (LLC) lung carcinoma model. C57BL/6 mice received sc. injection of 2×10^5 LLC cells in 100 μl PBS. When the tumors were palpable, mice were randomized to receive a single intravenous dose of cisplatin (5 mg/kg) or LiPyDau (1 mg/kg) as indicated by the arrow. Control mice were treated with saline.
Mouse melanoma (B16), lung (Lewis lung carcinoma, LLC) and breast (4T1-LUC) cancer cell lines were used to establish allograft tumors for drug testing. 5×10^5 B16 or 2×10^5 LLC cells were inoculated subcutaneously in 200 μl serum-free culture media. 4T1-LUC tumors were established by injecting 1×10^6 cells in 20 μl serum-free culture media through the nipple directly to the breast tissue of 8 weeks old BALB/c mice on day 0). […] For the B16, LLC and 4T1-LUC tumor models 4, 6 and 6 mice were treated with LiPyDau while 4, 3 and 6 animals were in the saline treated groups, respectively.

Another data set concerns P388. The experiment in a line: In vitro cytotoxicity. In kind it is cell-based. An excerpt:
(§1) Experiments were repeated at least 3 times.

A further data set relates to A431. Description: In vitro cytotoxicity. In kind it is cell-based.
Excerpt: as §1

The subject of the next data set is MES-SA. The experiment in a line: In vitro cytotoxicity. In kind it is cell-based. Conditions: read-out: IC50.
Excerpt: as §1

The subject of another data set is A431-G2. Description: In vitro cytotoxicity. In kind it is cell-based.
Excerpt: as §1

The next data set deals with MES-SA/Dx5. Description: In vitro cytotoxicity. In kind it is cell-based. As to conditions: MES-SA/Dx5; read-out: IC50.
Excerpt: as §1

Another data set deals with A431-B1. The experiment in a line: In vitro cytotoxicity. It counts as cell-based.
Excerpt: as §1

Another data set has as its system P388/ADR. The experiment in a line: In vitro cytotoxicity. In kind it is cell-based. Conditions: read-out: IC50.
Excerpt: as §1

The test system of a further data set is PC-3. As to conditions: PC-3, NCI-60 database, sulforhodamine B; read-out: Cytotoxic IC50; cited from earlier work.
A further data set concerns OVCAR-3. Conditions: OVCAR-3, NCI-60 database, sulforhodamine B; read-out: Cytotoxic IC50; cited from earlier work.
For a further data set, the system named is UO-31. As to conditions: UO-31, NCI-60 database, sulforhodamine B; read-out: Cytotoxic IC50; cited from earlier work.
In the next data set the test system is NCI-H226. Conditions: NCI-H226, NCI-60 database, sulforhodamine B; read-out: Cytotoxic IC50; cited from earlier work.
For a further data set, the system named is CCRF-CEM. As to conditions: NCI-60 database, sulforhodamine B, read-out: Cytotoxic IC50; cited from earlier work.
The test system of another data set is COLO 205. Conditions: COLO 205, NCI-60 database, sulforhodamine B; read-out: Cytotoxic IC50; cited from earlier work.
The test system of the next data set is MCF7. As to conditions: MCF7, NCI-60 database, sulforhodamine B; read-out: Cytotoxic IC50; cited from earlier work.
In the next data set the test system is PANC-1. Conditions: PANC-1, from Varbanov et al. (2017), PrestoBlue; read-out: Cytotoxic IC50; cited from earlier work.
For a further data set, the system named is HL-60(TB). As to conditions: NCI-60 database, sulforhodamine B, read-out: Cytotoxic IC50; cited from earlier work.
In the next data set the test system is MDA-MB-231. As to conditions: MDA-MB-231, NCI-60 database, sulforhodamine B; read-out: Cytotoxic IC50; cited from earlier work.
For another data set, the system named is HS 578T. Conditions: NCI-60 database, sulforhodamine B, read-out: Cytotoxic IC50; cited from earlier work.
The next data set deals with HCT-15. As to conditions: HCT-15, NCI-60 database, sulforhodamine B; read-out: Cytotoxic IC50; cited from earlier work.
The subject of the next data set is NCI/ADR-RES. As to conditions: NCI-60 database, sulforhodamine B, read-out: Cytotoxic IC50; cited from earlier work.
In a further data set the test system is SK-MEL-28. As to conditions: SK-MEL-28, NCI-60 database, sulforhodamine B; read-out: Cytotoxic IC50; cited from earlier work.
The subject of a further data set is MALME-3M. As to conditions: NCI-60 database, sulforhodamine B, read-out: Cytotoxic IC50; cited from earlier work.
The next data set has as its system OVCAR-8. Conditions: OVCAR-8, NCI-60 database, sulforhodamine B; read-out: Cytotoxic IC50; cited from earlier work.
The test system of another data set is A498. Conditions: A498, NCI-60 database, sulforhodamine B; read-out: Cytotoxic IC50; cited from earlier work.
For a further data set, the system named is SW-620. As to conditions: SW-620, NCI-60 database, sulforhodamine B; read-out: Cytotoxic IC50; cited from earlier work.
Another data set deals with MDA-MB-435. Conditions: MDA-MB-435, NCI-60 database, sulforhodamine B; read-out: Cytotoxic IC50; cited from earlier work.
Another data set concerns EKVX. Conditions: NCI-60 database, sulforhodamine B, read-out: Cytotoxic IC50; cited from earlier work.
For the next data set, the system named is OVCAR-5. As to conditions: OVCAR-5, NCI-60 database, sulforhodamine B; read-out: Cytotoxic IC50; cited from earlier work.
A further data set concerns HCC-2998. As to conditions: HCC-2998, NCI-60 database, sulforhodamine B; read-out: Cytotoxic IC50; cited from earlier work.
The subject of another data set is RXF 393. As to conditions: RXF 393, NCI-60 database, sulforhodamine B; read-out: Cytotoxic IC50; cited from earlier work.
The test system of the next data set is HOP-62. As to conditions: HOP-62, NCI-60 database, sulforhodamine B; read-out: Cytotoxic IC50; cited from earlier work.
A further data set has as its system DU-145. Conditions: DU-145, NCI-60 database, sulforhodamine B; read-out: Cytotoxic IC50; cited from earlier work.
The next data set deals with SK-MEL-2. Conditions: SK-MEL-2, NCI-60 database, sulforhodamine B; read-out: Cytotoxic IC50; cited from earlier work.
The next data set relates to KM12. Conditions: KM12, NCI-60 database, sulforhodamine B; read-out: Cytotoxic IC50; cited from earlier work.
For a further data set, the system named is HCT-116. Conditions: HCT-116, NCI-60 database, sulforhodamine B; read-out: Cytotoxic IC50; cited from earlier work.
The next data set has as its system CAKI-1. Conditions: CAKI-1, NCI-60 database, sulforhodamine B; read-out: Cytotoxic IC50; cited from earlier work.
For another data set, the system named is T-47D. Conditions: NCI-60 database, sulforhodamine B, read-out: Cytotoxic IC50; cited from earlier work.
The test system of another data set is HT29. Conditions: HT29, NCI-60 database, sulforhodamine B; read-out: Cytotoxic IC50; cited from earlier work.
In another data set the test system is NCI-60 cell lines. The experiment in a line: NCI DTP NCI-60 cell line screen database (sulforhodamine B), panel. Conditions: Homo sapiens. In kind it is cell-based.
The next data set has as its system BT-549. Conditions: BT-549, NCI-60 database, sulforhodamine B; read-out: Cytotoxic IC50; cited from earlier work.
The subject of data set [2] is Dunning R-3327-H prostate carcinoma. Conditions: cited from earlier work.
The conditions of data set [3]: Nagy et al.; cited from earlier work.
Data set [4] relates to nitrosamine-induced pancreatic cancers. Conditions: intraperitoneal, total dose of 100 nmol/kg; cited from earlier work.
The subject of data set [5] is patient-derived lung adenocarcinoma xenografts. Description: Patient-derived xenograft (PDX) model. In kind it is in vivo, NSG mice. Conditions: single treatment; LiPyDau 0.5 mg/kg, DOX 2 mg/kg, paclitaxel 12 mg/kg; 7 days. For orientation: In xenograft studies the graft and the host belong to different species.
Excerpt: A piece from the tumor tissue was transplanted subcutaneously into the right flank and propagated in NOD.Cg-Prkdc^scid Il2rg^tm1Wjl/SzJ (NSG) mice for 7 months. After the xenografted tumor reached 1000 mm^3, tumor pieces were retransplanted subcutaneously into the right flank of 20 additional NSG mice, which were given a single treatment with various chemotherapeutics or LiPyDau. Every treatment group consists of 5 animals. After daily monitoring of the tumor volume for one week, the mice were sacrificed and the cytotoxicity of the treatments was investigated on tissue slices by image analysis.
For treatment, tumor pieces were engrafted subcutaneously.

Where two headings read alike, the source gives them in different places.

As a reminder, the IC50 is the concentration that inhibits the measured activity by half.

Consider `N.N.[Cl][Pt][Cl]` [Cisplatin, cisplatin], for which the Tumor growth entry in data set [1] is “did not have any measurable effect on tumor growth”. The half-maximal inhibitory concentration (IC50) in the data set on P388 turned out to be 0.61 µM; in the data set on A431, 3.86 µM; in the data set with MES-SA it was 7.58 µM; with A431-G2, 1.95 µM; with MES-SA/Dx5, 12.5 µM; in the data set on A431-B1, 3.95 µM. The IC50 with P388/ADR stood at 1.18 µM.
On to `COc1cccc2c1C(=O)c1c(O)c3c(c(O)c1C2=O)C[C@@](O)(C(C)=O)C[C@@H]3O[C@H]1C[C@H](N)[C@H](O)[C@H](C)O1` [Dau, daunorubicin], for which the IC50 was 0.108 µM in the data set on PC-3; 0.124 µM with OVCAR-3; 0.175 µM in the data set on UO-31; 0.0465 µM in the data set on NCI-H226; 0.0228 µM in the data set with CCRF-CEM; 0.0525 µM in the data set with COLO 205. The 50% inhibitory concentration (IC50) with MCF7 is 0.0195 µM; with PANC-1 it was 0.26 µM; in the data set with HL-60(TB), 0.0312 µM; with MDA-MB-231 it was 0.201 µM; in the data set with HS 578T it was 0.12 µM; with HCT-15, 0.65 µM. The concentration for half-maximal inhibition (IC50) with NCI/ADR-RES was 1.23 µM; in the data set with SK-MEL-28, 0.132 µM; in the data set with MALME-3M it was 0.0497 µM; in the data set with OVCAR-8, 0.0416 µM; with A498, 0.137 µM; in the data set on SW-620, 0.0355 µM. Further, the IC50 was 0.137 µM in the data set with MDA-MB-435; 0.36 µM with EKVX; 0.155 µM in the data set with OVCAR-5; 0.0993 µM with HCC-2998; 0.0925 µM in the data set with RXF 393; 0.053 µM in the data set on HOP-62. Moreover, the concentration for half-maximal inhibition (IC50) with DU-145 is 0.0767 µM; in the data set with SK-MEL-2 it was 0.158 µM; in the data set on KM12, 0.0959 µM; in the data set on HCT-116 it was 0.0286 µM; in the data set with CAKI-1 it was 0.229 µM; with T-47D, 0.0408 µM. For the same compound, the IC50 in the data set with HT29 is 0.0507 µM; with NCI-60 cell lines (read-out: Cytotoxic IC50, av. breast) it was 0.112 µM; in the data set with NCI-60 cell lines (read-out: Cytotoxic IC50, av. colorectal) it was 0.145 µM; with NCI-60 cell lines (read-out: Cytotoxic IC50, av. leukaemia), 0.027 µM; with NCI-60 cell lines (read-out: Cytotoxic IC50, av. lung), 0.157 µM; in the data set on NCI-60 cell lines (read-out: Cytotoxic IC50, av. melanoma), 0.113 µM. Further, the half-maximal inhibitory concentration (IC50) with NCI-60 cell lines (read-out: Cytotoxic IC50, av. ovarian) was 0.388 µM; in the data set with NCI-60 cell lines (read-out: Cytotoxic IC50, av. prostatic), 0.0922 µM; in the data set on NCI-60 cell lines (read-out: Cytotoxic IC50, av. renal) it was 0.158 µM; with BT-549, 0.153 µM.
For the compound `COc1cccc2c1C(=O)c1c(O)c3c(c(O)c1C2=O)C[C@@](O)(C(=O)CO)C[C@@H]3O[C@H]1C[C@H](N2C=CCC2)[C@H](O)[C@H](C)O1` [PyDox, 2-pyrrolino-doxorubicin], the Animals that died in data set [2] (3×25 nmol/kg, rats) is listed as 6 of 10. The “Change in the number of mitotic or apoptotic cells” value in data set [2] (after treatment in rats) is recorded as “no significant change in the number of mitotic or apoptotic cells”. In data set [2] (dose of 50 nmol/kg, rats), the Mortality entry is given as “death of all rats”. The “Potency in vitro relative to Dox” value in data set [3] is 500-1000 times. The Hamsters that died in data set [4] is on record as 16 of 18.
Consider `CC(=O)O[C@H]1C(=O)[C@@]2(C)[C@H]([C@H](OC(=O)c3ccccc3)[C@]3(O)C[C@H](OC(=O)[C@H](O)[C@@H](NC(=O)c4ccccc4)c4ccccc4)C(C)=C1C3(C)C)[C@]1(OC(C)=O)CO[C@@H]1C[C@@H]2O` [paclitaxel], for which the Tumor growth result in [5] is listed as “failed to exert any effect on tumor growth”.

Source of the values: patent publication US20250032525A1 (priority 2021, published 2025).
